In patent US10183946B2, “Triazolo[4,5-D]pyrimidines” (Hoffmann—La Roche Inc., priority 2014, dated 2019):
Read-outs that look alike come from different tables or passages of the source.

Legend:
[1] = molecular target: human CB1 receptors (Homo sapiens (Human), UniProt P21554); test: cAMP assay, CHO cells expressing human CB1 receptors; assay type: cell-based
Procedure: (§1) CHO cells expressing human CB1 or CB2 receptors are seeded 17-24 hours prior to the experiment 50.000 cells per well in a black 96 well plate with flat clear bottom (Corning Costar #3904) in DMEM (Invitrogen No. 31331), 1×HT supplement, with 10% fetal calf serum and incubated at 5% CO2 and 37° C. in a humidified incubator. The growth medium was exchanged with Krebs Ringer Bicarbonate buffer with 1 mM IBMX and incubated at 30° C. for 30 min. Compounds were added to a final assay volume of 100 μl and incubated for 30 min at 30° C. Using the cAMP-Nano-TRF detection kit the assay (Roche Diagnostics) was stopped by the addition of 50 μl lysis reagent (Tris, NaCl, 1.5% Triton X100, 2.5% NP40, 10% NaN3) and 50 μl detection solutions (20 μM mAb Alexa700-cAMP 1:1, and 48 μM Ruthenium-2-AHA-cAMP) and shaken for 2 h at room temperature. The time-resolved energy transfer is measured by a TRF reader (Evotec Technologies GmbH), equipped with a ND:YAG laser as excitation source. The plate is measured twice with the excitation at 355 nm and at the emission with a delay of 100 ns and a gate of 100 ns, total exposure time 10 s at 730 (bandwidth 30 nm) or 645 nm (bandwidth 75 nm), respectively. The FRET signal is calculated as follows: FRET=T730-Alexa730-P(T645-B645) with P=Ru730-B730/Ru645-B645, where T730 is the test well measured at 730 nM, T645 is the test well measured at 645 nm, B730 and B645 are the buffer controls at 730 nm and 645 nm, respectively. cAMP content is determined from the function of a standard curve spanning from 10 μM to 0.13 nM cAMP.
(§2) EC50 values were determined using Activity Base analysis (ID Business Solution, Limited). The EC50 values for a wide range of cannabinoid agonists generated from this assay were in agreement with the values published in the scientific literature.

[2] = molecular target: human CB2 receptors (Homo sapiens (Human), UniProt P34972); test: cAMP assay, CHO cells expressing human CB2 receptors; assay type: cell-based; conditions: functional cAMP assay, read-out: CB2 hcAMP EC50
Sequence of human CB2 receptors (P34972 whole entry): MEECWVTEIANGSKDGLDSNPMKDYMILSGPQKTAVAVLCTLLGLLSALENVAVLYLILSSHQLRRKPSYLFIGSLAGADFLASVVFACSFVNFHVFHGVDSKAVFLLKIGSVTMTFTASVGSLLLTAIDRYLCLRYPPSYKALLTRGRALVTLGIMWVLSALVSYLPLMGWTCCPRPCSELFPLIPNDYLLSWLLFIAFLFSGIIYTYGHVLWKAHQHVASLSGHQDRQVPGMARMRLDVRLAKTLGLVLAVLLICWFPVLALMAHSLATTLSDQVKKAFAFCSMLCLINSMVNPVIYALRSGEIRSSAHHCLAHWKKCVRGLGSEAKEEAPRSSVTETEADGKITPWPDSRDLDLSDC
Procedure: as §1, §2

[3] = functional cAMP assay, CHO cells expressing human CB1, read-out: CB1 hcAMP EC50

Sequence of human CB1 receptors (P21554 whole entry): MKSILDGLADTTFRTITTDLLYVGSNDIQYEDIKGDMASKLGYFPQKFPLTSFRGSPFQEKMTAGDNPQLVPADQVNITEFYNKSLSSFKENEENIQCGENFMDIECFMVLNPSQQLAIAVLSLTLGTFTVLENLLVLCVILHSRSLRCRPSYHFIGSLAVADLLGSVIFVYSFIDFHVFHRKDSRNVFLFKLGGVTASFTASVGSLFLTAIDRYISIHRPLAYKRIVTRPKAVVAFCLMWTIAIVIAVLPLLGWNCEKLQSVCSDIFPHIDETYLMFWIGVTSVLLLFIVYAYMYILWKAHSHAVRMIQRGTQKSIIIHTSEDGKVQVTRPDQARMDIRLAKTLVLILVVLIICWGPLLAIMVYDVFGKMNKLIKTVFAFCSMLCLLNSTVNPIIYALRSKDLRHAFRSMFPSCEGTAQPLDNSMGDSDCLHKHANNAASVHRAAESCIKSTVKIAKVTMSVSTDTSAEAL

Row | SMILES | EC50 [1, 3] [nM] | EC50 [2] [nM] | EC50 [1] [nM]
1 | CC(C)(C)c1nc(C2(O)C[S+]([O-])C2)c2nnn(Cc3ccccc3Cl)c2n1 (centres unmarked) [Example 42, 3-[5-tert-Butyl-3-[(2-chlorophenyl)methyl]triazolo[4,5-d]pyrimidin-7-yl]-1-oxo-thietan-3-ol] | > 10000 | 110 | –
2 | Cn1nnnc1Cn1nnc2c(-c3cn[nH]c3)nc(C(C)(C)C)nc21 [Example 25, 5-tert-butyl-3-[(1-methyltetrazol-5-yl)methyl]-7-(1H-pyrazol-4-yl)triazolo[4,5-d]pyrimidine] | > 10000 | 32 | –
3 | CC(C)(C)c1nc(C2(O)CCCCCCC2)c2nnn(Cc3ccccc3Cl)c2n1 [Example 37, 1-[5-tert-Butyl-3-[(2-chlorophenyl)methyl]triazolo[4,5-d]pyrimidin-7-yl]cyclooctanol] | – | 126 | > 10000
4 | Cc1ccc(-c2nc(C(C)(C)C)nc3c2nnn3Cc2ccccc2Cl)nc1 [Example 7, 5-tert-butyl-3-[(2-chlorophenyl)methyl]-7-(5-methylpyridin-2-yl)triazolo[4,5-d]pyrimidine] | > 10000 | 488 | –
5 | Cn1cc(-c2nc(C(C)(C)C)nc3c2nnn3Cc2nnnn2C)cn1 [Example 24, 5-tert-butyl-7-(1-methylpyrazol-4-yl)-3-[(1-methyltetrazol-5-yl)methyl]triazolo[4,5-d]pyrimidine] | > 10000 | 156 | –
6 | Cc1nonc1Cn1nnc2c(-c3ccnn3C)nc(C(C)(C)C)nc21 [Example 14, 3-[[5-tert-butyl-7-(2-methylpyrazol-3-yl)triazolo[4,5-d]pyrimidin-3-yl]methyl]-4-methyl-1,2,5-oxadiazole] | > 10000 | 1.3 | –
7 | CC(C)(C)c1nc(-c2ccccc2F)c2nnn(Cc3ccccc3Cl)c2n1 [Example 4, 5-tert-butyl-3-[(2-chlorophenyl)methyl]-7-(2-fluorophenyl)triazolo[4,5-d]pyrimidine] | > 10000 | 65.2 | –
8 | Cn1nccc1-c1nc(C(C)(C)C)nc2c1nnn2Cc1ccccc1S(C)(=O)=O [Example 12, 5-tert-butyl-7-(2-methylpyrazol-3-yl)-3-[(2-methylsulfonylphenyl)methyl]triazolo[4,5-d]pyrimidine] | > 10000 | 3 | –
9 | Cn1nccc1-c1nc(C(C)(C)C)nc2c1nnn2CC(C)(C)O [Example 22, 1-[5-tert-butyl-7-(2-methylpyrazol-3-yl)triazolo[4,5-d]pyrimidin-3-yl]-2-methylpropan-2-ol] | > 10000 | 206 | –
10 | Cc1oncc1-c1nc(C(C)(C)C)nc2c1nnn2Cc1ccccc1Cl [Example 11, 4-[5-tert-butyl-3-[(2-chlorophenyl)methyl]triazolo[4,5-d]pyrimidin-7-yl]-5-methyl-1,2-oxazole] | > 10000 | 76.5 | –
11 | Cc1nnc(Cn2nnc3c(-c4ccnn4C)nc(C(C)(C)C)nc32)o1 [Example 15, 2-[[5-tert-butyl-7-(2-methylpyrazol-3-yl)triazolo[4,5-d]pyrimidin-3-yl]methyl]-5-methyl-1,3,4-oxadiazole] | > 10000 | 317 | –
12 | Cn1nccc1-c1nc(C(C)(C)C)nc2c1nnn2CC(O)CC(F)(F)F (centres unmarked) [Example 16, 1-[5-tert-butyl-7-(2-methylpyrazol-3-yl)triazolo[4,5-d]pyrimidin-3-yl]-4,4,4-trifluorobutan-2-ol] | > 10000 | 42.4 | –
13 | Cn1nccc1-c1nc(C(C)(C)C)nc2c1nnn2CC1(C)COC1 [Example 23, 5-tert-butyl-3-[(3-methyloxetan-3-yl)methyl]-7-(2-methylpyrazol-3-yl)triazolo[4,5-d]pyrimidine] | > 10000 | 445 | –
14 | CC(C)(C)c1nc(C2(O)CCC2)c2nnn(Cc3ccccc3)c2n1 [Example 31, 1-(3-Benzyl-5-tert-butyltriazolo[4,5-d]pyrimidin-7-yl)cyclobutan-1-ol] | 645 | 4.5 | –
15 | Cn1nnnc1Cn1nnc2c(-c3cnnn3Cc3ccccc3)nc(C(C)(C)C)nc21 [Example 29, 7-(3-benzyltriazol-4-yl)-5-tert-butyl-3-[(1-methyltetrazol-5-yl)methyl]triazolo[4,5-d]pyrimidine] | > 10000 | 16.6 | –
16 | CC(C)(C)c1nc(-c2ccc(Cl)cc2F)c2nnn(Cc3ccccc3Cl)c2n1 [Example 5, 5-tert-butyl-7-(4-chloro-2-fluorophenyl)-3-[(2-chlorophenyl)methyl]triazolo[4,5-d]pyrimidine] | > 10000 | 88.2 | –

Row | SMILES | EC50 [1, 3] [nM] | EC50 [2] [nM] | EC50 [1] [nM]
17 | CCC(O)(CC)c1nc(C(C)(C)C)nc2c1nnn2Cc1ccccc1Cl [Example 38, 3-[5-tert-Butyl-3-[(2-chlorophenyl)methyl]triazolo[4,5-d]pyrimidin-7-yl]pentan-3-ol] | > 10000 | 45.3 | –
18 | CC(C)(C)c1nc(C2(O)CCC2)c2nnn(Cc3ccccc3Cl)c2n1 [Example 33, 1-[5-tert-Butyl-3-[(2-chlorophenyl)methyl]triazolo[4,5-d]pyrimidin-7-yl]cyclobutanol] | > 10000 | 233 | –
19 | CC(C)(C)c1nc(C2(O)CCCC2)c2nnn(Cc3ccccc3Cl)c2n1 [Example 34, 1-[5-tert-Butyl-3-[(2-chlorophenyl)methyl]triazolo[4,5-d]pyrimidin-7-yl]cyclopentanol] | > 10000 | 35.3 | –
20 | CC(C)(C)c1nc(C2CCCC2)c2nnn(Cc3ccccc3)c2n1 [Example 45b, 3-benzyl-5-tert-butyl-7-cyclopentyl-triazolo[4,5-d]pyrimidine] | > 10000 | 30 | –
21 | Cn1nccc1-c1nc(C(C)(C)C)nc2c1nnn2C[C@H](O)C(F)(F)F [Example 17, (2S)-3-[5-tert-butyl-7-(2-methylpyrazol-3-yl)triazolo[4,5-d]pyrimidin-3-yl]-1,1,1-trifluoropropan-2-ol] | > 10000 | 77.2 | –
22 | Cn1nnnc1Cn1nnc2c(-c3cc[nH]n3)nc(C(C)(C)C)nc21 [Example 26, 5-tert-butyl-3-[(1-methyltetrazol-5-yl)methyl]-7-(1H-pyrazol-3-yl)triazolo[4,5-d]pyrimidine] | > 10000 | 578 | –
23 | Cn1cc(-c2nc(C(C)(C)C)nc3c2nnn3Cc2ccccc2Cl)cn1 [Example 8, 5-tert-butyl-3-[(2-chlorophenyl)methyl]-7-(1-methylpyrazol-4-yl)triazolo[4,5-d]pyrimidine] | > 10000 | 17.4 | –
24 | CC(C)(C)c1nc2c(nnn2Cc2ccccc2Cl)c([C@]2(O)C[C@H](C(F)F)C2)n1 [Example 40, Trans-1-[5-tert-Butyl-3-[(2-chlorophenyl)methyl]triazolo[4,5-d]pyrimidin-7-yl]-3-(difluoromethyl)cyclobutanol] | 1810 | 9.8 | –
25 | Cn1nccc1-c1nc(C(C)(C)C)nc2c1nnn2C1CCOC1 (centres unmarked) [Example 18, 5-tert-butyl-7-(2-methylpyrazol-3-yl)-3-(oxolan-3-yl)triazolo[4,5-d]pyrimidine] | > 10000 | 86 | –
26 | CC(C)(C)c1nc(C2CCCC2)c2nnn(Cc3ccccc3Cl)c2n1 [Example 45a, 5-tert-Butyl-3-[(2-chlorophenyl)methyl]-7-cyclopentyl-triazolo[4,5-d]pyrimidine] | > 10000 | 94.4 | –
27 | Cn1nccc1-c1nc(C(C)(C)C)nc2c1nnn2Cc1ccccc1Cl [Example 9, 5-tert-butyl-3-[(2-chlorophenyl)methyl]-7-(2-methylpyrazol-3-yl)triazolo[4,5-d]pyrimidine] | > 10000 | 44.3 | –
28 | Cc1ccc(-c2nc(C(C)(C)C)nc3c2nnn3Cc2ccccc2Cl)cc1 [Example 1, 5-tert-butyl-3-[(2-chlorophenyl)methyl]-7-(4-methylphenyl)triazolo[4,5-d]pyrimidine] | > 10000 | 206 | –
29 | Cn1nccc1-c1nc(C(C)(C)C)nc2c1nnn2C1COC1 [Example 19, 5-tert-butyl-7-(2-methylpyrazol-3-yl)-3-(oxetan-3-yl)triazolo[4,5-d]pyrimidine] | > 10000 | 190 | –
30 | CC(C)(C)c1nc(-c2ccccc2)c2nnn(Cc3ccccc3Cl)c2n1 [Example 10, 5-tert-butyl-3-[(2-chlorophenyl)methyl]-7-phenyltriazolo[4,5-d]pyrimidine] | > 10000 | 80.2 | –
31 | CC(C)(C)c1nc(-c2ccc(F)cc2)c2nnn(Cc3ccccc3Cl)c2n1 [Example 2, 5-tert-butyl-3-[(2-chlorophenyl)methyl]-7-(4-fluorophenyl)triazolo[4,5-d]pyrimidine] | > 10000 | 28.5 | –
